Holding throughout (experiment): relative viability (nuclei count vs DMSO), 5 days (fraction); higher = more cells survive
Compound in the assay “Dactolisib + Crizotinib”: Cn1c(=O)n(-c2ccc(C(C)(C)C#N)cc2)c2c3cc(-c4cnc5ccccc5c4)ccc3ncc21 [Dactolisib] + C[C@@H](Oc1cc(-c2cnn(C3CCNCC3)c2)cnc1N)c1c(Cl)ccc(F)c1Cl [Crizotinib] (partner 1 µM)
A digest of the protocol:
(§1)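 The day after seeding in 1536-well plates, lung cancer cell lines were treated by pin tool with a single drug, or with a fixed anchor-drug dose together with five library-drug doses (not always all listed) in √10 steps. After 5 days, a combined fix-and-stain solution (final 0.05% Triton X-100, 1% formaldehyde, 1 ug/ml Hoechst) was added. Nuclei counted on 4× images gave relative viability as treated counts over vehicle counts, reported as the median of duplicate plates.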

Compound in the assay “Dactolisib + Alpelisib”: Cn1c(=O)n(-c2ccc(C(C)(C)C#N)cc2)c2c3cc(-c4cnc5ccccc5c4)ccc3ncc21 [Dactolisib] + Cc1nc(NC(=O)N2CCC[C@H]2C(N)=O)sc1-c1ccnc(C(C)(C)C(F)(F)F)c1 [Alpelisib] (partner 2 µM)
A digest of the protocol:
as §1

Compound in the assay “AZ505 + Trametinib”: C1CCC(CC1)N(CCNCCC2=C3C(=C(C=C2)O)NC(=O)CO3)C(=O)CCNCCC4=CC(=C(C=C4)Cl)Cl [AZ505] + CC(=O)Nc1cccc(-n2c(=O)n(C3CC3)c(=O)c3c(Nc4ccc(I)cc4F)n(C)c(=O)c(C)c32)c1 [Trametinib] (partner 0.02 µM)
A digest of the protocol:
as §1

Compound in the assay “AZ505 + Decitabine”: C1CCC(CC1)N(CCNCCC2=C3C(=C(C=C2)O)NC(=O)CO3)C(=O)CCNCCC4=CC(=C(C=C4)Cl)Cl [AZ505] + Nc1ncn([C@H]2C[C@H](O)[C@@H](CO)O2)c(=O)n1 [Decitabine] (partner 2 µM)
A digest of the protocol: as §1

This is an account of results in the supplement of paper PMC10307832.

As to UMC-11, the relative viability with Dactolisib + Crizotinib (first compound 0.002 µM) worked out at 0.556; with Dactolisib + Crizotinib (first compound 0.006325 µM), 0.585; in the assay with Dactolisib + Crizotinib (first compound 0.02 µM), 0.403; in the assay with Dactolisib + Crizotinib (first compound 0.06325 µM), 0.275; in the assay with Dactolisib + Crizotinib (first compound 0.2 µM), 0.155; with Dactolisib + Alpelisib (first compound 0.002 µM), 0.961. In addition, the relative viability was 0.852 in the assay with Dactolisib + Alpelisib (first compound 0.006325 µM); 0.63 with Dactolisib + Alpelisib (first compound 0.02 µM); 0.266 with Dactolisib + Alpelisib (first compound 0.06325 µM); 0.243 with Dactolisib + Alpelisib (first compound 0.2 µM); 0.588 with AZ505 + Trametinib (first compound 0.08 µM); 0.643 with AZ505 + Trametinib (first compound 0.253 µM). Besides, the relative viability with AZ505 + Trametinib (first compound 0.8 µM) amounted to 0.697; with AZ505 + Trametinib (first compound 2.53 µM), 0.789; with AZ505 + Trametinib (first compound 8 µM), 0.672; with AZ505 + Decitabine (first compound 0.08 µM), 0.742; with AZ505 + Decitabine (first compound 0.253 µM) it was 0.674; in the assay with AZ505 + Decitabine (first compound 0.8 µM) it was 0.53. The relative viability amounted to 0.52 with AZ505 + Decitabine (first compound 2.53 µM) and 0.666 with AZ505 + Decitabine (first compound 8 µM).
